From publication PMC12406253, “Exploration of the Neuromodulatory Properties of Fyn and GSK-3β Kinases Exploiting 7‑Azaindole-Based Inhibitors” (Journal of Medicinal Chemistry, 2025)

Columns and labels:
[1] = system: primary rat cerebellar granule neurons (CGNs); assay: Neurotoxicity, cell viability in CGNs (MTT); type: cell-based; details: 5, 10, and 25 μM, 24 h
Description: A preliminary cell viability assessment was conducted in primary rat cerebellar granule neurons (CGNs), which are considered a reliable model for studying cellular and molecular mechanisms of survival/apoptosis and neurodegeneration/neuroprotection.
Primary cerebellar granule cells were dissociated from cerebella and plated on 96-well plates, previously coated with 10 μg/mL poly-L-lysine, at a density of 1.2 × 10^5 cells/0.2 mL medium/well in BME supplemented with 10% heat-inactivated FBS (Life Technologies), 2 mmol/L glutamine, 100 μmol/L gentamicin sulfate, and 25 mM KCl (all from Sigma-Aldrich). Sixteen hours later, 10 μM cytosine arabinofuranoside (Sigma-Aldrich) was added to avoid glial proliferation. After 7 days in vitro, differentiated neurons were shifted to serum-free BME medium and exposed to increasing concentrations (5 μM, 10 μM, 25 μM) of compounds of interest for 24 h. Then, cell viability was evaluated through the MTT assay.
For MTT assay, thiazolyl blue was added to the culture medium at a final concentration of 0.1 mg/mL. Following a 20 min incubation at 37 °C in the dark, the MTT precipitate was dissolved in 0.1 M Tris–HCl pH 7.5 buffer containing 5% Triton X-100 (all from Sigma-Aldrich) and absorbance was read at 570 nm in a microplate spectrophotometric reader (Bio-Rad).

[2] = system: neurospheres (NPCs from the subventricular zone); assay: Neurosphere differentiation, immunofluorescence of DCX, GFAP, OLIG2; type: cell-based, mice; details: 1 μM; 7 days
Description: Lastly, we move forward to evaluate the neuromodulatory profile of selected compounds that involves the capability to polarize the spontaneous differentiation of neurospheres, which potentially can maturate in neurons or macroglia, such as astrocytes and oligodendrocytes. Modulating NPC differentiation is especially relevant under neurodegenerative conditions as it could offer an intriguing opportunity to achieve polyhedric therapeutic effects. Importantly, neuronal differentiation may help to counteract the progressive neuronal loss, while promoting oligodendrocyte phenotype could support remyelination and neuronal function and the astrocytic polarization may aid to foster a neuroprotective profile. Particularly, after 7 days of treatment at 1 μM, in the same experimental conditions previously reported, cells were fixed and stained with different antibody markers such as doublecortin (DCX) for the immature neurons, glial fibrillary acidic protein (GFAP) for astrocytes, and oligodendrocyte transcription factor 2 (OLIG2) for oligodendrocyte precursors for immunofluorescence analysis (Figure a). […] By driving the maturation of astrocytes, compounds 41 and 43 could exert neuroprotection through multiple mechanisms, including the secretion of neurotrophic factors, enhancement of antioxidant defenses, regulation of water balance, ion homeostasis, and glutamate buffering and recycling. Furthermore, astrocytes support the integrity of the blood–brain barrier (BBB) and aid in the refinement of neural networks via synaptic pruning, further reinforcing their role in preserving brain function and structure.
NSCs were initially obtained by SVZ microdissection of 6 months-old C57BL/6N wild-type male mice (Mus musculus) and routinely cultured in suspension in DMEM-F12 (Gibco; ThermoFisher Scientific, Waltham, MA, USA) supplemented with 2 mM glutamine, 10 μg/mL insulin from bovine pancreas (Sigma-Aldrich; St Louis, MO, USA), 20 ng/mL epidermal growth factor (EGF; PeproTech EC, London, UK), 20 ng/mL fibroblast growth factor-2 (FGF2; PeproTech), 1% N2 (ThermoFisher Scientific), 1% B27 (ThermoFisher Scientific), 10 units/mL penicillin, and 10 μg streptomycin.
To assess the effect of compounds of interest in NSCs differentiation, 30 spheres were plated on 13 mm glass coverslips, previously coated with Matrigel matrix (Corning; New York, USA), in complete DMEM F-12 medium, and treated with 1 μM of compounds of interest. After 7DIV, neurospheres were fixed for 20 min with 4% PFA in PBS 0.1% pH 7.4. Fixed neurospheres were permeabilized in 0.1% Triton/PBS and nonspecific sites were blocked for 1 h with 0.1% Triton/PBS and 5% normal goat serum (Sigma-Aldrich; St Louis, MO, USA). Cells were then incubated overnight at 4 °C with the following primary antibodies: Anti-Doublecortin DCX (Abcam, Cambridge, UK), GFAP (Dakopatts), OLIG2 (Santa Cruz Biotechnology), 1:500 dilution in 0.1% Triton/PBS with 2% normal goat serum. After 3 washes in 0.1% Triton/PBS, specific secondary antibodies were added for 2 h at RT in the dark: Donkey anti-Mouse IgG Alexafluor 555 (Abcam, Cambridge, UK), Goat anti-Rabbit IgG Alexafluor 555 (Abcam, Cambridge, UK), 1:1000 dilution in 0.1% Triton/PBS with 2% normal goat serum. Following 3 washes in 0.1% Triton/PBS, nuclei were stained with DAPI (2 μg/mL, Sigma-Aldrich) for 5 min. Glass coverslips were mounted by using Ultracruz Aqueous Mounting Medium with DAPI (Santa Cruz Biotechnology). Neurospheres confocal images were obtained with a Nikon EZ-C1 microscope (60× objective) and the z-stack function (1024 steps and 1 μm thickness layers; 40 total stacks). 3D image reconstruction was performed by using Fiji ImageJ2 software, z-project plugin, and selecting the sum stacks’ function. Fluorescence intensity index was estimated as the ratio of markers’ positive cells intensity/total cells fluorescence intensity stained with DAPI per ROI.

CDK2/cyclinA(h) = biological target: T1, CDK2/cyclinA(h) (Homo sapiens, UniProt P24941); assay: Eurofins KinaseProfiler radiometric kinase assay; type: biochemical; details: read-out: CDK2/cyclinA(h) % Residual activity
T1 construct: purchased Eurofins KinaseProfiler (Eurofins Cerep)

CDK6/cyclinD3(h) = biological target: T2, CDK6/cyclinD3(h) (Homo sapiens, UniProt Q00534); assay: Eurofins KinaseProfiler radiometric kinase assay; type: biochemical; details: read-out: CDK6/cyclinD3(h) % Residual activity
T2 construct: purchased Eurofins KinaseProfiler (Eurofins Cerep)

EGFR(h) = biological target: T3, EGFR(h) (Homo sapiens, UniProt P00533); assay: Eurofins KinaseProfiler radiometric kinase assay; type: biochemical; details: read-out: EGFR(h) % Residual activity
T3 construct: purchased Eurofins KinaseProfiler (Eurofins Cerep)

EphA5(h) = biological target: T4, EphA5(h) (Homo sapiens, UniProt P54756); assay: Eurofins KinaseProfiler radiometric kinase assay; type: biochemical; details: read-out: EphA5(h) % Residual activity
T4 construct: purchased Eurofins KinaseProfiler (Eurofins Cerep)

Fyn(h) = biological target: T5, Fyn(h) (Homo sapiens, UniProt P06241); assay: Eurofins KinaseProfiler radiometric kinase assay; type: biochemical; details: for Fyn inhibition: 10 µM; for remaining activity at 10 µM: read-out: Fyn(h) % Residual activity
T5 construct: purchased Eurofins KinaseProfiler (Eurofins Cerep)

IKKα(h) = biological target: T6, IKKα(h) (Homo sapiens, UniProt O15111); assay: Eurofins KinaseProfiler radiometric kinase assay; type: biochemical; details: read-out: IKKα(h) % Residual activity
T6 construct: purchased Eurofins KinaseProfiler (Eurofins Cerep)

LOK(h) = biological target: T7, LOK(h) (Homo sapiens, UniProt O94804); assay: Eurofins KinaseProfiler radiometric kinase assay; type: biochemical; details: for LOK inhibition: 10 µM; for remaining activity at 10 µM: read-out: LOK(h) % Residual activity
T7 construct: purchased Eurofins KinaseProfiler (Eurofins Cerep)

MLK1(h) = biological target: T8, MLK1(h) (Homo sapiens, UniProt P80192); assay: Eurofins KinaseProfiler radiometric kinase assay; type: biochemical; details: for remaining activity at 10 µM: read-out: MLK1(h) % Residual activity
T8 construct: purchased Eurofins KinaseProfiler (Eurofins Cerep)

mTOR(h) = biological target: T9, mTOR(h) (Homo sapiens, UniProt P42345); assay: Eurofins KinaseProfiler radiometric kinase assay; type: biochemical; details: read-out: mTOR(h) % Residual activity
T9 construct: purchased Eurofins KinaseProfiler (Eurofins Cerep)

PAK2(h) = biological target: T10, PAK2(h) (Homo sapiens, UniProt Q13177); assay: Eurofins KinaseProfiler radiometric kinase assay; type: biochemical; details: read-out: PAK2(h) % Residual activity
T10 construct: purchased Eurofins KinaseProfiler (Eurofins Cerep)

PKBα(h) = biological target: T11, PKBα(h) (Homo sapiens, UniProt P31749); assay: Eurofins KinaseProfiler radiometric kinase assay; type: biochemical; details: read-out: PKBα(h) % Residual activity
T11 construct: purchased Eurofins KinaseProfiler (Eurofins Cerep)

Plk3(h) = biological target: T12, Plk3(h) (Homo sapiens, UniProt Q9H4B4); assay: Eurofins KinaseProfiler radiometric kinase assay; type: biochemical; details: read-out: Plk3(h) % Residual activity
T12 construct: purchased Eurofins KinaseProfiler (Eurofins Cerep)

Rsk1(h) = biological target: T13, Rsk1(h) (Homo sapiens, UniProt Q15418); assay: Eurofins KinaseProfiler radiometric kinase assay; type: biochemical; details: for remaining activity at 10 µM: read-out: Rsk1(h) % Residual activity
T13 construct: purchased Eurofins (Eurofins Cerep) KinaseProfiler

SAPK2a(h) = biological target: T14, SAPK2a(h) (Homo sapiens, UniProt Q16539); assay: Eurofins KinaseProfiler radiometric kinase assay; type: biochemical; details: read-out: SAPK2a(h) % Residual activity
T14 construct: purchased Eurofins (Eurofins Cerep) KinaseProfiler

[3] = system: immortalized murine microglia N9; assay: Immunomodulation in LPS-treated N9 microglia, Western blot of iNOS and TREM2; details: 2.5 and 5 μM; 100 ng/mL LPS, 24 h
Description: To gain a conclusive answer on the potential role of these kinase inhibitors in counteracting neuroinflammatory processes, after the verified induced astrocytic polarization, the ability of selected compounds to modulate inflammatory response was analyzed by favoring the immunomodulatory switch from neurotoxic M1 phenotype of microglia to phagocytic and neuroprotective M2 phenotype, evaluating inducible nitric oxide synthase (iNOS) and TREM2 as M1 and M2 markers (Figure ).
The microglial phenotype was evaluated through Western blot analysis of the pro-inflammatory iNOS and anti-inflammatory-TREM2 markers.

T13 sequence (Q15418 whole entry): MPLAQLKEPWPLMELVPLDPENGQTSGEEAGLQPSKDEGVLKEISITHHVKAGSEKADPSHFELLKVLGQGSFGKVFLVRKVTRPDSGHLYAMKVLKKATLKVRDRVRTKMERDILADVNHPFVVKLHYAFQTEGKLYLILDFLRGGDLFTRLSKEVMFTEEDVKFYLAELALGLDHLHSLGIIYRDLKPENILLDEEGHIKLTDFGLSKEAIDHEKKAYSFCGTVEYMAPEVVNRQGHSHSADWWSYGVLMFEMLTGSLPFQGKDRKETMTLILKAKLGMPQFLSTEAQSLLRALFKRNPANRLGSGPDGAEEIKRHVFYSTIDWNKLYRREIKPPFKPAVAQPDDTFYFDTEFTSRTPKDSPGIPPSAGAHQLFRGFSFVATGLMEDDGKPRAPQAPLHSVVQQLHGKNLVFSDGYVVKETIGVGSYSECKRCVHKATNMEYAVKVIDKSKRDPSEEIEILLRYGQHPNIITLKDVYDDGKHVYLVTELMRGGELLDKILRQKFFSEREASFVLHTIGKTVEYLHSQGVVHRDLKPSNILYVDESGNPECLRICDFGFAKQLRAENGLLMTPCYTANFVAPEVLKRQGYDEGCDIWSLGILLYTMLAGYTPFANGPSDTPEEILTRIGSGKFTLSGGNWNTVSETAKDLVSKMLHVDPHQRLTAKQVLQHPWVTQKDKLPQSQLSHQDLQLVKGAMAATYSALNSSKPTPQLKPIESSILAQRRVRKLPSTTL
T5 sequence (P06241 whole entry): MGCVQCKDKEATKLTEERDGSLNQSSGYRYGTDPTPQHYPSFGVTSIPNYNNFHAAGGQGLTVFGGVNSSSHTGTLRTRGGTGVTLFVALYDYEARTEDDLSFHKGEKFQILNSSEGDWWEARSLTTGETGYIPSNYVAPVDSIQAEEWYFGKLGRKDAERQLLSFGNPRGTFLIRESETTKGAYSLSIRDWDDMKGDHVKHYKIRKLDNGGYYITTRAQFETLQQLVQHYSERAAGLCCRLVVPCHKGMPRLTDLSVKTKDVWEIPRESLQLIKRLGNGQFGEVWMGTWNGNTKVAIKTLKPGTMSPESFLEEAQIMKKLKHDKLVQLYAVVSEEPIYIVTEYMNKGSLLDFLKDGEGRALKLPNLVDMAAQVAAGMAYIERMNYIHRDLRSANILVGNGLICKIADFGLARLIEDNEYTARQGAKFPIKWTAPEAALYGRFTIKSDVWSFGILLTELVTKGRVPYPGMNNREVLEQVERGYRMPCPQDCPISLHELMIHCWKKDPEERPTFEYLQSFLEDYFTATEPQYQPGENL
T8 sequence (P80192 whole entry): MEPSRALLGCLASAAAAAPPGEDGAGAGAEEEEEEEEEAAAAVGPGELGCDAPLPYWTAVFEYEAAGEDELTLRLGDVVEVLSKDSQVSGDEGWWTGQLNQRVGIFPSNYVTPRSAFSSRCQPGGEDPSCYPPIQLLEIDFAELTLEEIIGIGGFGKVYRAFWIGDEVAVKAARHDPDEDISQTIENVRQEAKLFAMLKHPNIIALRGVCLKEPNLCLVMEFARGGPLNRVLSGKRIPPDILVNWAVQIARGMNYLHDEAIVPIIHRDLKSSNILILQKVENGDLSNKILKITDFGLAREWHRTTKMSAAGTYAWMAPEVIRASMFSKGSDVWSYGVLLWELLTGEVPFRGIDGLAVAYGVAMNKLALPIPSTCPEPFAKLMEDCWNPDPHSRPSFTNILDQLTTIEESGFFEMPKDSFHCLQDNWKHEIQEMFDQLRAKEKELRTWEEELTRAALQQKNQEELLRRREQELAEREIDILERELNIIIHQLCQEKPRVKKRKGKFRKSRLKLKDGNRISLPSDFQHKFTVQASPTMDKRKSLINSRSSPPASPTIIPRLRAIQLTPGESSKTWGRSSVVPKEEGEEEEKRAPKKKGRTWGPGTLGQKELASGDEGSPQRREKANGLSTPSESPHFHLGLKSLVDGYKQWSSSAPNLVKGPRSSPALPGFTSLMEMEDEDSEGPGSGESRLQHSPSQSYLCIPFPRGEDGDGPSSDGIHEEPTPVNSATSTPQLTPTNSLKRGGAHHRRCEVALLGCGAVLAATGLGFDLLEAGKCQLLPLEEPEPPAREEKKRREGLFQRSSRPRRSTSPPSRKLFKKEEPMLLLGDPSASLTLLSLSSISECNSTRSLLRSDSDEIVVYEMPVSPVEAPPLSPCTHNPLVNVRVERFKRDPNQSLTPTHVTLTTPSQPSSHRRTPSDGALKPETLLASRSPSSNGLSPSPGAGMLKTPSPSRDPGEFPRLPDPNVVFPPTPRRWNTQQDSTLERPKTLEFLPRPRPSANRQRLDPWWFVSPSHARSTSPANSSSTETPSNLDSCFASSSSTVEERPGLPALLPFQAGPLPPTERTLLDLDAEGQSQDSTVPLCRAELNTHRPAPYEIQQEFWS
T7 sequence (O94804 whole entry): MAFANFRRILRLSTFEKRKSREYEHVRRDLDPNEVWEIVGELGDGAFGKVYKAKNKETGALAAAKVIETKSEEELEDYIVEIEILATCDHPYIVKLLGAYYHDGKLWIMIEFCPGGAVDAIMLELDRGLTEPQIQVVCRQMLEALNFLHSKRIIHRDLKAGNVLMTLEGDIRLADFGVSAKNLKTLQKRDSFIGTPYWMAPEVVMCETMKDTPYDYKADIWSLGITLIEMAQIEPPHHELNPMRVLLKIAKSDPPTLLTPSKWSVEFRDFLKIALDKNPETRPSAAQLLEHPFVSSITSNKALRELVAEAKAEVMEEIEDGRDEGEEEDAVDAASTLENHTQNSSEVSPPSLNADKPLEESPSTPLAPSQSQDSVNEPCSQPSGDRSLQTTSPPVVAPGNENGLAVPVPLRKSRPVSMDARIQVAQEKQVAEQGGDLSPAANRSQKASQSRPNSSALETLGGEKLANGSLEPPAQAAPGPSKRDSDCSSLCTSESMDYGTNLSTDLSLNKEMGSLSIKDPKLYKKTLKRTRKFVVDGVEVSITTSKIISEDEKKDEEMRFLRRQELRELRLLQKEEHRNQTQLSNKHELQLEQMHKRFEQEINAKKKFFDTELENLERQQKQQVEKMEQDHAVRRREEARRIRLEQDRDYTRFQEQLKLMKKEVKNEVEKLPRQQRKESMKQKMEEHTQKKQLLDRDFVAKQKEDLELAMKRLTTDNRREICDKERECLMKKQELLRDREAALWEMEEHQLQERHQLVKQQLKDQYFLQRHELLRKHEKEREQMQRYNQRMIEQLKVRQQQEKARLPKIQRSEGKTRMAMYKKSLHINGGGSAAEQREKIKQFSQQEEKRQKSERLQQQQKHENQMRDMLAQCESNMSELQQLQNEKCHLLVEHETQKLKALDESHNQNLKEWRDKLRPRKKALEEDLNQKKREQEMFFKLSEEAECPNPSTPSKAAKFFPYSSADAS
T12 sequence (Q9H4B4 whole entry): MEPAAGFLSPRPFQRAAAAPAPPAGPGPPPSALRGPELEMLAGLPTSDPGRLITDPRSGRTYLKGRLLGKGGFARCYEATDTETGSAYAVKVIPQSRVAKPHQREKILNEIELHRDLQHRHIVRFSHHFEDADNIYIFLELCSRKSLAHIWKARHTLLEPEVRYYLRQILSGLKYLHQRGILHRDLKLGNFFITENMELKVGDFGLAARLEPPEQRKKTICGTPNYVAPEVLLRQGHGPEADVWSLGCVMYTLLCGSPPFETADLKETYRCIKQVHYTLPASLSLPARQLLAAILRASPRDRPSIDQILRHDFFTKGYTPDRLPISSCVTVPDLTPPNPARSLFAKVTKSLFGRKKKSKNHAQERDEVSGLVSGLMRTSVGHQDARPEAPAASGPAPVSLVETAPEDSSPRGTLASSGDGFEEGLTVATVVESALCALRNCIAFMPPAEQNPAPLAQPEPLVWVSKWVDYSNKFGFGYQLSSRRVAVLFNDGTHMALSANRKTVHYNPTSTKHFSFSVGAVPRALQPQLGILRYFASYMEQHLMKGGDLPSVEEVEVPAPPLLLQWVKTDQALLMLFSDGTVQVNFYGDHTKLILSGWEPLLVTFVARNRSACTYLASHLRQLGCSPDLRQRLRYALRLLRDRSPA
T2 sequence (Q00534 whole entry): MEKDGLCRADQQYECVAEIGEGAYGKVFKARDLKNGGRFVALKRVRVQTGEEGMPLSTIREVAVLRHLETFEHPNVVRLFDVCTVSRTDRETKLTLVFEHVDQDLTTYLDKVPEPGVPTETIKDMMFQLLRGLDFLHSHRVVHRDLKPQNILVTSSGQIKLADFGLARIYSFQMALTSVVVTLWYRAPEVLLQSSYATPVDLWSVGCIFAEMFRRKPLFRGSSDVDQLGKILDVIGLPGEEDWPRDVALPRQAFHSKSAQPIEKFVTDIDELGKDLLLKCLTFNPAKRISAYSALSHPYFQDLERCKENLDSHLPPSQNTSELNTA
T2 sequence (P30281 whole entry partner): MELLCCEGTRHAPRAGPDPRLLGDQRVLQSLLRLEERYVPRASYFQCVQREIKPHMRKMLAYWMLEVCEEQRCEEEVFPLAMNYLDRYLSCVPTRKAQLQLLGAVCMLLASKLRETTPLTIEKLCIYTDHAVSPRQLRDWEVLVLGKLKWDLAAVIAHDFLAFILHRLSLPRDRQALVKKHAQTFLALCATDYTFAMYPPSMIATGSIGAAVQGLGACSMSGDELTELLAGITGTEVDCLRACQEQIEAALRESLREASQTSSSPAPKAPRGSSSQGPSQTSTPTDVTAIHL
T14 sequence (Q16539 whole entry): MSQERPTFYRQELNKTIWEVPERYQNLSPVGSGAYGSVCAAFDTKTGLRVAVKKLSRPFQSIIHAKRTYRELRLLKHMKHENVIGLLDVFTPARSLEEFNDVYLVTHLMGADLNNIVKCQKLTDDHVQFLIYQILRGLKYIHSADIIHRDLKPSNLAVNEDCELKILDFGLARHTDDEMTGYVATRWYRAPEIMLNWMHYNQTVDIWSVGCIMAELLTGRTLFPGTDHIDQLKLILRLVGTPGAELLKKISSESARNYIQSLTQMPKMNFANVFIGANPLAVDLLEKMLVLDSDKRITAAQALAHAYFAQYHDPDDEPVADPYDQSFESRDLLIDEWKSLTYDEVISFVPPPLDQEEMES

## Br.Cc1sc(NCc2ccccc2)nc1-c1c[nH]c2ncc(Br)cc12 [Compound 41, N-Benzyl-4-(5-bromo-1H-pyrrolo[2,3-b]pyridin-3-yl)-5-methylthiazol-2-amine Hydrobromide]
[1]
  Increase in registered cell viability in comparison to control: amplified
  Neurotoxicity on CGNs (cell viability compared to control): not neurotoxic
[2]
  Differentiation toward astrocytes (GFAP): notably directed the differentiation toward the astrocytic phenotype
  Differentiation toward oligodendrocytes (OLIG2): markedly deleterious for oligodendrocytes
CDK2/cyclinA(h)
  remaining activity at 10 µM: 27%
CDK6/cyclinD3(h)
  remaining activity at 10 µM: 86%
EGFR(h)
  remaining activity at 10 µM: 50%
EphA5(h)
  remaining activity at 10 µM: 93%
Fyn(h)
  Fyn inhibition: completely inhibited
  remaining activity at 10 µM: -2%
IKKα(h)
  remaining activity at 10 µM: 96%
LOK(h)
  LOK inhibition: completely inhibited
  remaining activity at 10 µM: 4%
MLK1(h)
  inhibition at 10 µM: > 90%
  remaining activity at 10 µM: 8%
mTOR(h)
  remaining activity at 10 µM: 86%
PAK2(h)
  remaining activity at 10 µM: 75%
PKBα(h)
  remaining activity at 10 µM: 104%
Plk3(h)
  remaining activity at 10 µM: 89%
Rsk1(h)
  remaining activity at 10 µM: 44%
SAPK2a(h)
  remaining activity at 10 µM: 101%
[3]
  TREM2 expression (M2 marker) vs LPS: no significant variations
  iNOS expression (M1 marker) vs LPS: notably decreased the M1 marker at both tested concentrations

## Br.Cc1sc(NCc2ccnc(Cl)c2)nc1-c1c[nH]c2ncccc12 [Compound 43, N-((2-Chloropyridin-4-yl)methyl)-5-methyl-4-(1H-pyrrolo[2,3-b]pyridin-3-yl)thiazol-2-amine Hydrobromide]
[1]
  Increase in registered cell viability in comparison to control: amplified
  Neurotoxicity on CGNs (cell viability compared to control): not neurotoxic
[2]
  Differentiation toward astrocytes (GFAP): notably directed the differentiation toward the astrocytic phenotype
  Differentiation toward oligodendrocytes (OLIG2): this effect was mitigated
CDK2/cyclinA(h)
  remaining activity at 10 µM: 16%
CDK6/cyclinD3(h)
  remaining activity at 10 µM: 90%
EGFR(h)
  remaining activity at 10 µM: 86%
EphA5(h)
  remaining activity at 10 µM: 103%
Fyn(h)
  Fyn inhibition: completely inhibited
  remaining activity at 10 µM: 0%
IKKα(h)
  remaining activity at 10 µM: 99%
LOK(h)
  LOK inhibition: completely inhibited
  remaining activity at 10 µM: 4%
MLK1(h)
  remaining activity at 10 µM: 12%
mTOR(h)
  remaining activity at 10 µM: 97%
PAK2(h)
  remaining activity at 10 µM: 72%
PKBα(h)
  remaining activity at 10 µM: 103%
Plk3(h)
  remaining activity at 10 µM: 96%
Rsk1(h)
  inhibition at 10 µM: > 90%
  remaining activity at 10 µM: 3%
SAPK2a(h)
  remaining activity at 10 µM: 103%
[3]
  TREM2 expression (M2 marker) vs LPS: no significant variations
  iNOS expression (M1 marker) vs LPS: significantly reduced the M1 marker only at the highest concentration
